{"source": "patent US20070054868A1", "about": "“Synergistic polyphenol compounds, compositions thereof, and uses thereof” (The Trustees of Columbia University in the City of New York, priority 2005, published 2007)", "key": {"p-HER3": {"tested_on": "p-HER3", "test": "Immunoprecipitation and western blot analysis in SW837 cells", "type": "cell-based, human", "from_the_text": "Total cellular protein was extracted and equivalent amounts of protein can be determined by western blot analysis using the methods described in Suzui, et al., Cancer Res., 62:3997-4006 (2002). The primary antibodies for several proteins are described in Masuda et al., Clin Cancer Res., 7:4220-4229 (2001); Masuda et al., Clin Cancer Res., 9:3486-3491 (2003); and Shimizu et al., Clin Cancer Res., 11:2735-2746 (2005). The primary antibodies for HER3 (2F12) and COX-2 (PG27) were purchased from Upstate Cell Signaling Solutions (Charlottesville, Va.) and Oxford Biochemical Research (Oxford, Mich.), respectively. To examine the levels of expression of the phosphorylated (i.e. activated) form of the HER3 protein (p-HER3), cellular lysates (1 mg/mL) were incubated with 4 μg anti-HER3 antibody overnight at 4° C. with slow agitation, and immune complexes were then precipitated by adding protein A/G agarose (sc-2003, Santa Cruz Biotechnology, Santa Cruz, Calif.). After incubating for 2 hours at 4° C., the beads were washed with lysis buffer, and bound proteins were eluted into the sample buffer and subjected to western blot analysis, as described above. The p-HER3 protein was then detected by using an anti-phospho-tyrosine antibody (PY-20-HRP, BD Transduction Laboratories, San Diego, Calif.). An antibody to actin was used as a loading control. […]"}, "HT29 cells [1]": {"tested_on": "HT29 cells", "test": "Filipin staining of plasma membrane cholesterol", "type": "cell-based, human", "protocol": "(§1) These effects were detected with as little as […] of EGCG, and within 5 minutes. Phosphorylation of EGFR, ERK1, ERK2, and AKT were suppressed in cells treated with methyl-β-cyclodextrin, which depletes plasma membrane cholesterol. […] In addition, the inhibitory effect of EGCG on phosphorylation of EGFR was not blocked by the addition of cholesterol on the growth medium. These findings provide evidence that EGCG can alter membrane domain organization in colon cancer cells ant that this is not due to cholesterol depletion. It was noted that pre-treatment of the cells with EGCG or Poly E inhibited the binding of Alexa 488-labeled EGF to the cell surface receptor EGFR."}, "HT29 cells [2]": {"tested_on": "HT29 cells", "test": "Incorporation of DilC16 into the plasma membrane after pretreatment", "type": "cell-based, human", "settings": "HT29 pretreated with test substance"}, "[3]": {"tested_on": "HT29 human colon cancer cells", "test": "DilC16-labelled plasma membrane, extraction using cold Triton X-100", "type": "cell-based", "protocol": "HT29 human colon cancer cells were treated with the fluorescent lipid analog DilC16, which preferentially incorporates into ordered domains in the plasma membrane."}, "COX-2 promoter": {"tested_on": "COX-2 promoter", "test": "Transient transfection luciferase reporter assay in SW837 cells", "type": "cell-based, human", "settings": "10 and 20 μg/mL, 24 hours", "protocol": "(§2) Reporter assays were performed performed using the methods described in Suzui, et al., Cancer Res., 62:3997-4006 (2002). The COX-2-luciferase reporter plasmid phPES2(−327/+59) was provided by the National Cardiovascular Research Institute (Osaka, Japan). The pAP-1 luciferase reporter plasmid was provided by the National Cancer Institute (Bethesda, Md.). The NF-[…]B promoter luciferase reporter plasmid […]NF-[…]B-Luc is described in Masuda et al., Clin. Cancer Res. 7:4220-4229 (2001). One μg of DNA of the indicated luciferase reporter plasmid was transfected into SW837 human colon cancer cells (3.0×10^5 cells/35-mm diameter dish) using Lipofectin reagent (Invitrogen) in opti-MEM I medium (Invitrogen). After 24 hours the cells were treated with EGCG (0, 10, or 20 μg/mL) for 24 hours, and extracts were then prepared. Luciferase activities were determined using a luciferase assay system ([…]., Madison, Wis.). In all of these reporter assays the cells were also cotransfected with a CMV-[…]-galactosidase ([…]-gal) reporter. Luciferase activities were normalized with respect to the […]-gal activities, to correct for differences in transfection efficiency, using the methods described in Suzui, et al., Cancer Res., 62:3997-4006 (2002)."}, "AP-1 promoter": {"tested_on": "AP-1 promoter", "test": "Transient transfection luciferase reporter assay in SW837 cells", "type": "cell-based, human", "settings": "10 and 20 μg/mL, 24 hours, inhibition most apparent for this promoter", "protocol": "as §2"}, "NF-κB promoter": {"tested_on": "NF-κB promoter", "test": "Transient transfection luciferase reporter assay in SW837 cells", "type": "cell-based, human", "settings": "10 and 20 μg/mL, 24 hours", "protocol": "as §2"}, "IGF-1": {"tested_on": "IGF-1", "test": "Production of growth factors in HepG2 cells", "type": "cell-based, human", "settings": "20 μg/mL, listed as EGCG", "protocol": "(§3) The cells were treated with […] EGCG at 0, 3, 6, 12, 24 and 48 hours, and cell extracts were examined by Western blot analysis using the respective antibodies, or were examined by semiquantitative RT-PCR analysis using IGFBP-3 or IGF-1 specific primers.\n(§4) Using the MTT cell proliferation assay described in Example 21, and substituting HepG2 human liver cancer cells in place of SW837 cells, the effects of EGCG (20 μg/mL), an illustrative Synergistic Polyphenol Compound, on the production of IGF-1, IGF-2 and IGFBP-3 was determined. […] Accordingly, the Synergistic Polyphenol Compounds are useful for treating or preventing liver cancer."}, "IGF-2": {"tested_on": "IGF-2", "test": "Production of growth factors in HepG2 cells", "type": "cell-based, human", "settings": "20 μg/mL, listed as EGCG", "protocol": "as §3, §4"}, "[4]": {"tested_on": "EGFR, ERK1, ERK2, and AKT", "test": "Phosphorylation of signaling proteins in HT29 cells", "type": "cell-based, human", "protocol": "as §1"}, "IGF-1R proteins": {"tested_on": "IGF-1R proteins", "test": "Western blot analysis for IGF in SW837 cells, total receptor", "type": "cell-based, human", "settings": "20 μg/mL, during the time course", "from_the_text": "Total cellular protein was extracted and equivalent amounts of protein were examined by western blot analysis, as described above in Example 6. Cell lysates were separated by SDS-PAGE using 7.5 to 15% polyacrylamide gels and transferred onto Immobilon-P transfer membranes (Millipore Co., Bedford, Mass.). The primary antibodies for IGF-1R[…](#3022) and p-IGF-1R (#3021) were purchased from Cell Signaling Technology (Beverly, Mass.). The primary antibodies for IGF-1R[…](sc-713) and IGFBP-3 (sc-6003) were purchased from Santa Cruz Biotechnology (Santa Cruz, Calif.). The primary antibodies for IGF-1 (clone Sm1.2) and actin (A2066) were purchased from Upstate Cell Signaling Solutions (Charlottesville, Va.) and Sigma Chemical Co. (St Louis, Mo.), respectively. An antibody to actin was used as a loading control. Anti-mouse IgG (Amersham Pharmacia Biosciences, Piscataway, N.J.), anti-rabbit IgG (Amersham Pharmacia Biosciences), or anti-goat IgG (Santa Cruz Biotechnology) antibodies were used as the secondary antibodies. Each membrane was developed using an ECL-enhanced chemiluminescence system (Amersham Biosciences)."}, "[5]": {"settings": "HT29, Triton X-100 sensitivity and DilC16 incorporation"}}, "note": "Entries after “also recorded” stand apart in the source; their conditions may differ."}
{"substance": "(−)-epigallocatechin gallate", "values": [{"measurement": "levels of the p-HER3 protein", "setting": "p-HER3; 1.0 μg/mL, 96 hours", "value": "decrease"}, {"measurement": "levels of the p-HER3 protein", "setting": "p-HER3; 20 μg/mL, within 6 hours", "value": "marked decrease"}, {"measurement": "effects on plasma membrane properties versus cholesterol depletion (filipin staining)", "setting": "HT29 cells [1]", "value": "not associated with cholesterol depletion"}, {"measurement": "subsequent incorporation of DilC16 into the plasma membrane", "setting": "HT29 cells [2]", "value": "inhibit"}, {"measurement": "lowest concentration at which the membrane effects were detected", "setting": "[3]; [5]", "value": 2, "unit": "mg/mL"}, {"measurement": "time within which the membrane effects were detected", "setting": "[3]; [5]", "value": "≤ 5", "unit": "min"}, {"measurement": "sensitivity of the plasma membrane to extraction using cold Triton X-100", "setting": "[3]; HT29 pretreated with DilC16", "value": "marked increase"}, {"measurement": "COX-2 luciferase reporter activity", "setting": "COX-2 promoter", "value": "inhibition"}, {"measurement": "AP-1 luciferase reporter activity", "setting": "AP-1 promoter", "value": "inhibition"}, {"measurement": "NF-κB luciferase reporter activity", "setting": "NF-κB promoter", "value": "inhibition"}, {"measurement": "production of IGF-1", "setting": "IGF-1", "value": "inhibited production; also recorded: decreased the production"}, {"measurement": "production of IGF-2", "setting": "IGF-2", "value": "inhibited production; also recorded: decreased the production"}, {"measurement": "inhibitory effect on phosphorylation of EGFR on addition of cholesterol to the growth medium", "setting": "[4]", "value": "not blocked"}, {"measurement": "levels of the IGF-1R proteins (total)", "setting": "IGF-1R proteins", "value": "no significant changes"}]}
